Results from PMC6160541 (Frontiers in Chemistry, 2018).

Experiments:
[1] = tested on: A549R; experiment: MTT cytotoxicity assay, A549R (cisplatin-resistant); assay type: cell-based, human; conditions: for IC50: MTT, 48 h
Procedure: (§1) We evaluated the cytotoxicity of 1c-6c, 1d-7d and of the positive control 1a-5a against a panel of human cancer cells using MTT (3-(4,5-dimethylthiazol-2-yl)-2,5-diphenyltetrazolium bromide) assay. The IC50 values were calculated based on three parallel experiments.
(§2) Cisplatin and oxaliplatin were purchased from Yurui Chemical Co. Ltd. (Shanghai, China). All of the other chemicals were obtained from commercial suppliers, such as Alfa […]
(§3) IonSpec QFT mass spectrometer with ESI ionization. 3-(4,5-dimethylthiazol-2-yl) […]
(§4) Phosphate-buffered saline (PBS) contains 137 mM
(§5) NaCl, 2.7 mM KCl, 10 mM Na2HPO4 and 2 mM KH2PO4. Fetal bovine serum (FBS), 0.25% trypsin/EDTA solution, and penicillin-streptomycin solution were purchased from […]
(§6) Invitrogen (Grand Island, NY, USA). […]
(§7) HeLa (cervical carcinoma cell line), MCF-7 (breast gland adenocarcinoma), LNCaP and PC3 (prostatic cancer), HepG-2 (hepatocellular carcinoma), A549 and A549R (lung carcinoma) were used for the MTT […]
(§8) In Vitro Cellular Cytotoxicity Assays
(§9) Cells seeded in 96-well plates were incubated in a 5% CO2 atmosphere in 100 µL of complete medium at 37 ℃ for 24 h. Then, 100 µL of freshly prepared culture medium containing drugs at different concentrations was added and incubated for another 48 h.
(§10) MTT (5 mg/mL, 20 µL) was added and incubated for 3 h. Finally, the medium was removed, and DMSO (150 µL) was added. The absorbance was measured at 570 nm using a Bio-Rad 680 microplate reader. The IC50 values were calculated using GraphPad […]
(§11) Prism software. […]

[2] = tested on: human cancer cells; experiment: MTT cytotoxicity, summary over panel of human cancer cells; assay type: cell-based; conditions: range over A549R, LnCaP, PC3
Procedure: as §1
Scheme 9. Synthetic route of 38b. Conditions and reagents: (a) Ac2O and NaOAc; (b) TMSN3, BF3OEt2, and DCM; (c) MeONa and MeOH rt overnight; (d) BnBr, NaH, and DMF overnight; (e) […]
Preparation of 46b and 47b
Compounds 46b (38%) and 47b (45%) were prepared according to the procedure described for compounds 20b and 21b, respectively.
Compound 48b (45%) was prepared according to the procedure described for compound […]
In Vitro Cellular Cytotoxicity Assays […]
MTT (5 mg/mL, 20 µL) was added and incubated for 3 h. […] The absorbance was measured at 570 nm using a Bio-Rad 680 microplate reader. The IC50 values were calculated using GraphPad Prism software. […]
For cytotoxicity assays using the GLUT1 inhibitor 4,6-O-ethylidene-α-D-glucose (EDG), phloretin and the OCT2 inhibitor Ctd., a similar procedure as described above was followed except that MCF-7 cells (3500 cells/well) were seeded on a 96 well plate in 100 µL of RPMI and incubated for 24 h at 37 °C. […] The cytotoxicity profiles of the compounds were evaluated using the MTT assay. […]

[3] = tested on: MCF-7 cells; experiment: MTT cytotoxicity with GLUT1 inhibitors (EDG, phloretin) and OCT2 inhibitor (Ctd.) in MCF-7 cells; assay type: cell-based, human; conditions: MCF-7
Procedure: For cytotoxicity assays, the GLUT1 inhibitors EDG (1) and phloretin (2), the OCT2 inhibitor Ctd. (cimetidine) (3), and the mixture of EDG and Ctd.(4) were selected to undergo a similar procedure as antitumor activity in vitro. MCF-7 cells were seeded on a 96 well plate in 100 μL of RPMI and were incubated for 24 h at 37°C, and EDG-containing RPMI medium, phloretin-containing RPMI medium and Ctd.-containing RPMI medium were used to render the serial dilution of the concentrated solutions of the platinum compounds, and 100 μL/well was added (resulting in final inhibitor concentrations of 75 mM, 100 μM and 3 mM). The cytotoxicity profiles of the compounds were evaluated using MTT assay. […]
as §8, §9
MTT (5 mg/mL, 20 µL) was added and incubated for 3 h. Finally, the medium was removed, and DMSO (150 µL) was added. The absorbance was measured at 570 nm using a Bio-Rad 680 microplate reader. The IC50 values were calculated using GraphPad Prism software. Technical repetitions and independent experiments were based on three […]
For cytotoxicity assays using the GLUT1 inhibitor 4,6-O-ethylidene-α-D-glucose (EDG), phloretin and the OCT2 inhibitor Ctd., a similar procedure as described above was followed except that MCF-7 cells (3500 cells/well) were seeded on a 96 well plate in 100 µL of RPMI and incubated for 24 h at 37 °C. EDG, phloretin and Ctd. containing RPMI medium were used for serial dilution of the concentrated solutions of the platinum compounds, and 100 µL/well were added (resulting in final inhibitor concentrations of 75 mM, 100 µM and 3 mM, respectively). The cytotoxicity profiles of the compounds were evaluated using the MTT assay. […]

[4] = tested on: PC3; experiment: MTT cytotoxicity assay, PC3; assay type: cell-based, human; conditions: 48 h
Procedure: as §1, §2, §3, §4, §5, §6, §7, §8, §9, §10, §11

[5] = tested on: HeLa; experiment: MTT cytotoxicity assay, HeLa; assay type: cell-based, human; conditions: 48 h
Procedure: as §1, §2, §3, §4, §5, §6, §7, §8, §9, §10, §11

[6] = tested on: LNCaP; experiment: MTT cytotoxicity assay, LNCaP; assay type: cell-based, human; conditions: 48 h
Procedure: as §1, §2, §3, §4, §5, §6, §7, §8, §9, §10, §11

[7] = tested on: HepG-2; experiment: MTT cytotoxicity assay, HepG-2; assay type: cell-based, human; conditions: 48 h
Procedure: as §1, §2, §3, §4, §5, §6, §7, §8, §9, §10, §11

[8] = tested on: MCF-7; experiment: MTT cytotoxicity assay, MCF-7; assay type: cell-based, human; conditions: 48 h
Procedure: as §1, §2, §3, §4, §5, §6, §7, §8, §9, §10, §11

[9] = tested on: A549; experiment: MTT cytotoxicity assay, A549; assay type: cell-based, human; conditions: 48 h
Procedure: as §1, §2, §3, §4, §5, §6, §7, §8, §9, §10, §11

| Compound | IC50 [1] [µM] | IC50 [2] [µM] | effect of EDG and phloretin on IC50 values [3] | IC50 [4] [µM] | IC50 [5] [µM] | IC50 [6] [µM] | IC50 [7] [µM] | IC50 [8] [µM] | IC50 [9] [µM] | RF: Resistance factor = IC50(A549R)/IC50(A549) [1] |
| --- | --- | --- | --- | --- | --- | --- | --- | --- | --- | --- |
| N.N.[Cl][Pt][Cl] [1a, cisplatin, reference compound] | 35.8 ± 1.69 | 16.8 to 39.7 | not greatly different | 22.9 ± 1.45 | 0.8 ± 0.93 | 23.8 ± 0.89 | 3.94 ± 0.39 | 2.28 ± 0.56 | 10.8 ± 1.98 |  |
| CC(=O)OC[C@H]1O[C@@H](O[C@H]2[C@H](OC(C)=O)[C@@H](OC(C)=O)[C@H](NC(=O)CCC(=O)[O][Pt-2]([NH3+])([NH3+])([OH])([Cl])[Cl])O[C@@H]2COC(C)=O)[C@H](OC(C)=O)[C@@H](OC(C)=O)[C@H]1OC(C)=O [1c] | 4.26 ± 1.9 |  |  | > 100 | 18.2 ± 1.01 | > 100 | 11.6 ± 1.58 | 24.2 ± 1.44 | 36.4 ± 1.39 | 0.12 |
| N.N.[Cl-].[Cl-].[OH-].[OH-].[Pt+4] [2a, reference compound] | 13.4 ± 2.57 |  |  | 61.4 ± 0.67 | 11.4 ± 1.56 | 50.8 ± 0.79 | 50 ± 1.79 | 27 ± 0.34 | > 100 |  |
| CC(=O)OC[C@H]1O[C@@H](O[C@H]2[C@H](OC(C)=O)[C@@H](OC(C)=O)[C@H](NC(=O)CCC(=O)[O][Pt-2]34([OH])([NH2+][C@@H]5CCCC[C@H]5[NH2+]3)[O]C(=O)C(=O)[O]4)O[C@@H]2COC(C)=O)[C@H](OC(C)=O)[C@@H](OC(C)=O)[C@H]1OC(C)=O [2c] | 8.37 ± 1.9 |  |  | > 100 | 4.05 ± 0.87 | 4.7 ± 0.89 | 59.3 ± 1.49 | 8.29 ± 1.87 | 14.5 ± 1.47 | 0.58 |
| O=C1[O][Pt]2([NH][C@@H]3CCCC[C@H]3[NH]2)[O]C1=O [3a, oxaliplatin, reference compound] | 39.7 ± 0.69 | 16.8 to 39.7 | not greatly different | 39.7 ± 0.76 | 3.96 ± 0.75 | 16.8 ± 0.34 | 6.64 ± 1.79 | 5.22 ± 2.78 | 10.1 ± 1.2 | 3.94 |
| CC(=O)OC[C@H]1O[C@@H](NC(=O)CCC(=O)[O][Pt-2]([NH3+])([NH3+])([OH])([Cl])[Cl])[C@H](OC(C)=O)[C@@H](OC(C)=O)[C@@H]1O[C@H]1O[C@H](COC(C)=O)[C@@H](OC(C)=O)[C@H](OC(C)=O)[C@H]1OC(C)=O [3c] | 14.6 ± 1.78 |  |  | 1.13 ± 0.45 | 0.91 ± 0.54 | > 100 | 3.27 ± 1.67 | 27.2 ± 1.56 | 3.38 ± 1.49 | 4.33 |
| N.N.O=C(CCC(=O)[O][Pt]([OH])([Cl])[Cl])NCCO[C@H]1O[C@H](CO)[C@@H](O)[C@H](O)[C@@H]1O [3d] | > 100 |  |  | > 100 | 3.01 ± 0.67 | > 100 | 13.2 ± 1.38 | 45.1 ± 0.77 | 1.9 ± 2.78 |  |
| NC1CCCCC1N.O=C1[O][Pt]([OH])([OH])[O]C1=O [4a, reference compound] | 29.7 ± 0.64 |  |  | > 100 | 15.8 ± 0.34 | 23 ± 0.89 | > 100 | > 100 | > 100 |  |
| CC(=O)OC[C@H]1O[C@@H](NC(=O)CCC(=O)[O][Pt-2]23([OH])([NH2+][C@@H]4CCCC[C@H]4[NH2+]2)[O]C(=O)C(=O)[O]3)[C@H](OC(C)=O)[C@@H](OC(C)=O)[C@@H]1O[C@H]1O[C@H](COC(C)=O)[C@@H](OC(C)=O)[C@H](OC(C)=O)[C@H]1OC(C)=O [4c] | 25.2 ± 1.79 |  |  | 22.9 ± 0.78 | > 100 | > 100 | 10.7 ± 1.49 | 7.21 ± 0.78 | 14.3 ± 1.48 |  |
| CC(=O)OC[C@H]1O[C@@H](NC(=O)CCC(=O)[O][Pt-2]23([OH])([NH2+][C@@H]4CCCC[C@H]4[NH2+]2)[O]C(=O)C(=O)[O]3)[C@H](OC(C)=O)[C@@H](OC(C)=O)[C@H]1OC(C)=O [5c] | 74.1 ± 1.67 |  |  | 7.45 ± 0.56 | 32.2 ± 0.34 | 22.1 ± 1.45 | > 100 | 17.89 ± 0.12 | 17.5 ± 0.89 | 4.24 |
| O=C(CCC(=O)[O][Pt-2]12([OH])([NH2+][C@@H]3CCCC[C@H]3[NH2+]1)[O]C(=O)C(=O)[O]2)NCCCO[C@@H]1O[C@H](CO)[C@H](O)[C@H](O)[C@H]1O [5d] | 5.67 ± 1.69 |  |  | 6.27 ± 1.45 | 0.58 ± 0.78 | 12 ± 0.79 | 1.77 ± 1.39 | 0.35 | 2.29 ± 1.78 |  |
| CC(=O)OC[C@H]1O[C@H](NC(=O)CCC(=O)[O][Pt-2]23([OH])([NH2+][C@@H]4CCCC[C@H]4[NH2+]2)[O]C(=O)C(=O)[O]3)[C@@H](OC(C)=O)[C@@H](OC(C)=O)[C@@H]1OC(C)=O [6c] | > 100 |  |  | 7.06 ± 0.56 | 16.8 ± 0.45 | 20.1 ± 1.78 | 50.9 ± 1.46 | 20.8 ± 0.45 | 23.8 ± 0.78 |  |
